# According to patent US5827895A, “Hexahydrolupulones useful as anticancer agents” (Regents of the University of Minnesota, priority 1996, dated 1998):
# Key:
# Test in all cases: microbe, parasite or virus in culture
# Type in all cases: cell-based, M. tuberculosis
# [1] = tested on: Isoniazid and Rifampin Resistant TB; details: Mycobacterium tuberculosis, read-out: inhibition of Isoniazid and Rifampin Resistant TB
# Isoniazid Resistant TB = details: Mycobacterium tuberculosis, read-out: inhibition of Isoniazid Resistant TB growth
# [2] = tested on: Pyrazinamide Resistant TB; details: Mycobacterium tuberculosis, read-out: inhibition of Pyrazinamide Resistant TB growth
structure (smiles),measurement,setting,value
"CC(C)CCC1=C(O)C(C(=O)C(C)C)=C(O)C(CCC(C)C)(CCC(C)C)C1=O [HHC, hexahydrocolupulone]",inhibition at 75 µM,[1],92%
same,inhibition at 75 µM,Isoniazid Resistant TB,91%
same,inhibition at 75 µM,[2],98%
